Source: paper PMC13672995, “NCR13 peptide protects soybean against Cercospora sojina using multi-faceted modes of action and additive interaction with chemical fungicides” (Journal of Experimental Botany, 2025)
Where no end group is shown, it is not given here.

Tests used:
B. cinerea [1] = conditions: ref Godwin et al., 2024; cited from earlier work
Text: The cysteine-rich defensins are the best characterized class of plant AFPs for their antifungal activity and multi-faceted MoAs. Many fungal pathogens internalize defensins and defensin-derived peptides in vitro, making them promising candidates for development as bio-fungicides to protect crops. For example, a well-characterized plant defensin MtDef4 and the 17 amino acid γ-core peptide GMA4CG_V6 peptide derived from this defensin are internalized by the necrotrophic pathogen Botrytis cinerea in vitro and robustly reduce gray mold symptoms when sprayed on tomato plants ([Tetorya et al., 2023] ...

C. sojina conidia = experiment: ROS measurement with H2DCFDA; assay type: cell-based, Cercospora sojina; conditions: 1.5 μM peptide, 15 µM H2DCFDA
Method: The reactive oxygen species (ROS) indicator dye 2′,7′-dichlorodihydrofluorescein diacetate (H2DCFDA) was used to evaluate ROS induction in C. sojina cells. Cercospora sojina conidia (∼1×10^5 conidia ml^−1) in SFM at various concentrations of iron (FeSO4) were mixed with 15 µM H2DCFDA amd 1.5 µM NCR13_PFV1, and the fluorescence measurements were taken in a Tecan plate reader M200 PRO at excitation and emission wavelengths of 485 nm and 535 nm, respectively, every 30 min for 15 h. ROS induction in C. sojina was visualized using time-lapse confocal microscopy (×63 water immersion objective lens, HC PL Apochromat CS2). The C. sojina conidia grown for 4–5 h in SFM at various concentrations of iron were treated with 15 µM H2DCFDA and 1.5 µM DyLight550-NCR13_PFV1 followed by acquisition of z-stacks using a Leica SP8-X confocal microscope. The excitation and emission wavelengths of DyLight550-NCR13_PFV1 and H2DCFDA were 560 nm, 575–650 nm, and 485 nm, 500–540 nm, respectively.

C. sojina rRNA = experiment: Electrophoretic mobility shift assay (EMSA); assay type: binding, Cercospora sojina; conditions: ~200 ng C. sojina RNA, 10 mM Tris–HCl pH 8.0, 1 mM EDTA, 1 h, room temperature
Method: To determine the RNA binding ability of NCR13_PFV1, EMSA was performed as described in [Godwin et al. (2024)]. Briefly, total RNA was extracted from C. sojina Cs350 grown in SFM using the ZymoBIOMICS DNA/RNA Miniprep Kit (Zymo Research). Approximately 200 ng of the fungal RNA was mixed with different concentrations of NCR13_PFV1 in 20 μl of binding buffer (10 mM Tris–HCl, pH 8.0, 1 mM EDTA), incubated at room temperature for 1 h, and run through gel electrophoresis.

B. cinerea [2] = experiment: In vitro antifungal activity against B. cinerea; assay type: cell-based, Botrytis cinerea
[3] = system: C. sojina Cs350 conidia and germlings; experiment: Plasma membrane permeabilization assay (SYTOX Green); assay type: cell-based, Cercospora sojina
Method: Membrane permeabilization of C. sojina Cs350 by NCR13_PFV1 and azoxystrobin was analyzed by visualizing the influx of SYTOX Green (SG) (Thermo Scientific) using time-lapse confocal microscopy. Germlings grown for 6–8 h or conidia of C. sojina were mixed with various concentrations of NCR13_PFV1, azoxystrobin, or both and 0.5 µM SG and were observed under confocal microscopy at an excitation wavelength of 500 nm and an emission wavelength ranging from 510 nm to 600 nm at specific time intervals. A z-stack at each time point was acquired using a ×63 water immersion objective lens (HC PL Apochromat CS2).

[4] = system: C. sojina Cs350 (fungicide resistant); experiment: Peptide-fungicide checkerboard assay; assay type: cell-based, Cercospora sojina; conditions: pair azoxystrobin / NCR13_PFV1; Cs350; 4 d; SHAM 60 µg ml–1; microscopy
Method: Synergy between NCR13_PFV1 and the widely used QoI foliar fungicides, azoxystrobin (Sigma-Aldrich, Cat No: 31697), trifloxystrobin (Sigma-Aldrich, Cat No: 46447), and pyraclostrobin (Sigma-Aldrich, Cat No: 33696), were evaluated using checkerboard assays. This assay was performed in a 96-well plate and the preparation of conidial suspension, peptide dilutions, and fungicide dilutions were similar to the in vitro antifungal activity assay described above. The presence of an alternative respiration pathway allows some fungi including C. sojina to germinate even in the presence of a high dose of QoI fungicides in vitro ([Ziogas et al., 1997]; [Zhang et al., 2012]). Therefore, to prevent alternative respiration in C. sojina, salicylhydroxamic acid (SHAM) was added in each reaction at the final concentration of 60 µg ml^–1 ([Zhang et al., 2012]). The conidia, peptide, fungicide, and SHAM were added in a 96-well plate at the v/v ratio of 4:1:1:2 (50 µl:12.5 µl:12.5 µl:25 µl) in the final reaction volume of 100 µl, and the plate was incubated at room temperature for 96 h (4 d). After 96 h, MIC values of the peptide–fungicide combination, peptide alone, and fungicide alone were calculated based on microscopy as well as the resazurin cell viability assay. The fractional inhibitory concentration (FIC) index was calculated using the formula FIC = (MICA+B/MICA) + (MICB+A/MICB), where MICA and MICB are the MIC for peptide (A) alone and fungicide (B) alone, respectively, MICA+B is the MIC for peptide in combination with fungicide (A+B), and MICB+A is the MIC for fungicide in combination with peptide (B+A). The FIC index was interpreted as: synergistic, ≤0.5; additive, >0.5–1.0; indifferent, >1 to <4.0; or antagonistic, ≥4.0.

[5] = Heme-peptide binding assay (colour change); conditions: equimolar heme and peptide, 100 µM, 1 h, room temperature
Method: Heme solutions were freshly prepared by dissolving hemin chloride (Sigma Cat No: 3741) in 0.1 M NaOH and used within an hour after preparation. Two heme-sequestering peptides, NCR247 and NCR455 ([Montiel et al., 2017]; [Sankari et al., 2022]), were used as positive controls, and water-only treatment as a negative control. The equimolar concentration of heme and peptide (100 µM) or water were mixed and incubated at room temperature for 1 h. When dissolved in NaOH, heme is light to dark brown in color; however, when it binds to a peptide, the color changes to reddish-brown as described by [Sankari et al. (2022)]. The change in color of heme to reddish-brown indicated the heme binding ability of the peptide.

Sequence: TKPCQSDKDCKKFACRKPKVPKCINGFCKCVR (disulfide (positions not given here)) [NCR13_PFV1, chickpea nodule-specific cysteine-rich 32 amino acid peptide, disulfide cross-linking variant 1, expressed in Pichia pastoris]
- fold more potent antifungal activity than NCR13_PFV2 against B. cinerea (B. cinerea [1]): 2 fold
- ROS induction (C. sojina conidia): accumulates ROS
- ROS level over time at iron >20 μM (C. sojina conidia; read every 30 min for 15 h): did not increase with time
- concentration from which binding to rRNA was observed (C. sojina rRNA): 6 µM
- fold increase in MIC against B. cinerea with increasing iron (B. cinerea [2]; iron from 5 µM to 30 μM): 4 fold
- MIC against B. cinerea at low iron (B. cinerea [2]; medium with 5 µM iron): 0.375 µM
- MIC against B. cinerea at high iron (B. cinerea [2]; medium with 30 μM iron): 1.5 µM
- plasma membrane permeabilization (SYTOX Green uptake) ([3]; Cs350, 0.5 µM SG, confocal microscopy): permeabilization of the plasma membrane
- time to plasma membrane permeabilization of conidia and germlings ([3]; SYTOX Green uptake): ≤ 10 min
- Combination MIC [4]: 0.75 µM
- heme binding (colour change of heme from brown to reddish-brown) [5]: no such color change
